Consider 32 compounds from the Deep4Chem optical property database.

Structures are written as SMILES.

This data set can be described thus: solvent given as SMILES.

Turning to `CCCCCCCCOC(=O)c1ccc(-c2cc3ccc4cc(-c5ccc(C(=O)OCCCCCCCC)cc5)cc5ccc(c2)c3c45)cc1`, the fluorescence lifetime (in Cc1ccccc1) came out at 49 ns.
The compound `Cc1cc(C)c(C2=C(c3c(C)sc(-c4ccc(-c5nc(-c6ccccc6)c(-c6ccccc6)[nH]5)cc4)c3C)C(F)(F)C(F)(F)C2(F)F)s1` gave a fluorescence lifetime (in C1CCOC1) of 0.42 ns.
Consider `Fc1c(-c2nnc(-c3ccccc3)o2)c(-n2c3ccccc3c3ccccc32)c(F)c(-n2c3ccccc3c3ccccc32)c1-n1c2ccccc2c2ccccc21`, for which, under “in Cc1ccccc1”, the fluorescence lifetime was 7.7 ns.
Turning to `c1ccc2c(-c3ccc4sc5ccccc5c4c3)c3ccccc3cc2c1`, the fluorescence lifetime amounted to 4.1 ns (in C1CCCCC1), 4.5 ns (in CC#N) and 5 ns (in ClCCl).
As for `CCC1=C(C)C2=Cc3c(I)c(I)c(I)n3[B-](F)(F)[N+]2=C1C`, the fluorescence lifetime is, setting by setting: (in C1CCCCC1) 0.358 ns; (in CC(C)=O) 0.198 ns; (in CCO) 0.244 ns; (in CCOC(C)=O) 0.236 ns; (in CO) 0.22 ns; (in OCC(F)(F)F) 0.18 ns.
With `Cc1cc(-n2c3ccccc3c3cc4c(cc32)C2c3ccccc3C4c3ccccc32)c(C)cc1-c1nc(-c2ccccc2)nc(-c2ccccc2)n1`, where the note is “in O=P(c1ccccc1)(c1ccccc1)c1ccccc1Oc1ccccc1P(=O)(c1ccccc1)c1ccccc1”, the fluorescence lifetime worked out at 10.5 ns.
Regarding `COc1ccc(C(=Cc2ccc(C#N)cc2)c2ccc(OC)cc2)cc1`, where the note is “in C1CCOC1”, the fluorescence lifetime stood at 6.9 ns.
With `CN(C)c1ccc2nc(-c3ccc(C=C(C#N)C#N)cc3)sc2c1`, the fluorescence lifetime (in C1CCCCC1) was 3.1 ns.
As to `CCn1c2ccsc2c2c3nsnc3c3c4sccc4n(CC)c3c21`, the fluorescence lifetime is 23.7 ns (in C1CCOC1); 24.2 ns (in CCOC(C)=O); 22.1 ns (in CN(C)C=O); 19.4 ns (in Cc1ccccc1); 16.6 ns (in ClCCl).
In the case of `O=CC12N=N[C@](C=O)(C3C4CCC(C4)C31)C1[C@@H]3CC[C@@H](C3)[C@H]12` (some centres undefined), where the note is “in CC#N”, the fluorescence lifetime was 111 ns.
In turn, `Cc1cc(C)c(C2=C3C=CC=[N+]3[B-]3(c4ccc5ccc6cccc7ccc4c5c67)Oc4cc(O)cc5c6ccc(C)cc6c6cc2n3c6c45)c(C)c1` (centres undefined) registered a fluorescence lifetime (in ClC(Cl)Cl) of 3.5 ns.
`CC(=O)[B-]1(C(C)=O)OC(c2ccccc2)=CC(c2ccccc2)=[O+]1` came in with a fluorescence lifetime (in CC#N) of 1.5 ns and a fluorescence lifetime (in ClC(Cl)(Cl)Cl) of 2.1 ns.
Where the note is “in c1cc(-c2cccc(-n3c4ccccc4c4ccccc43)c2)cc(-n2c3ccccc3c3ccccc32)c1”, `CC(C)(C)c1ccc2c(c1)c1cc(C(C)(C)C)ccc1n2-c1cc(C(=O)c2ccncc2)cc(-n2c3ccc(C(C)(C)C)cc3c3cc(C(C)(C)C)ccc32)c1` returned a fluorescence lifetime of 28.1 ns.
As to `COc1cc2[nH]c3c(c2cc1OCC(=O)O)CCCC3=O`, the fluorescence lifetime is, setting by setting: (in C1CCOC1) 0.411 ns; (in C1COCCO1) 0.189 ns; (in CC#N) 0.627 ns; (in CCCCCCCCCCCCO) 1.24 ns; (in CCCCCCCCCCO) 1.17 ns; (in CCCCCCCCO) 1.15 ns. Further, the fluorescence lifetime turned out to be 1.17 ns (in CCCCCCO); 1.29 ns (in CCCCO); 1.69 ns (in CCO); 0.279 ns (in CCOC(C)=O); 1.92 ns (in CN(C)C=O); 1.87 ns (in CO). In addition, the fluorescence lifetime is, setting by setting: (in CS(C)=O) 2.27 ns; (in Cc1ccccc1) 0.189 ns; (in O) 2.23 ns; (in c1ccccc1) 0.188 ns.
As to `Cc1cc(C)c(B(c2ccc(-c3cc4ccc5cccc6ccc(c3)c4c56)cc2)c2c(C)cc(C)cc2C)c(C)c1`, for the setting “in Cc1ccccc1”, the fluorescence lifetime was 65 ns.
Consider `CCC12C(=C3C(=C4c5ccccc5S(=O)(=O)C41CC)C(F)(F)C(F)(F)C3(F)F)c1ccccc1S2(=O)=O` (centres undefined), for which, where the note is “in C1COCCO1”, the fluorescence lifetime was 1.2 ns.
As to `COC(=O)C(Cc1ccc2oc(-c3ccncc3)nc2c1)NC(=O)OC(C)(C)C` (centres undefined), the fluorescence lifetime came to 0.609 ns (in CC1CCCCC1), 1.19 ns (in CC#N) and 2.17 ns (in CO).
`c1ccc(-c2ccc3c(c2)c2cc(-c4ccccc4)ccc2n3-c2ccc3c(c2)c2cc(-n4c5ccc(-c6ccccc6)cc5c5cc(-c6ccccc6)ccc54)ccc2n3-c2ccc(-c3nc(-c4ccccc4)nc(-c4ccccc4)n3)cc2)cc1` registered a fluorescence lifetime (in Cc1ccccc1) of 6.3 ns.
Take `CCC1=C(C)C2=C(C)c3c(C)c(CC)c(C)n3[B-](F)(F)[N+]2=C1C`: the fluorescence lifetime amounted to 5.6 ns (in C1CCCCC1); 5.63 ns (in C1CCOC1); 5.48 ns (in C1COCCO1); 5.96 ns (in CC#N); 5.92 ns (in CC(C)=O); 6.04 ns (in CC(C)O). The same compound gave a fluorescence lifetime (in CCC(C)C) of 6.28 ns; a fluorescence lifetime (in CCCCCC) of 5.9 ns; a fluorescence lifetime (in CCCCCCCC) of 5.84 ns; a fluorescence lifetime (in CCCCCCCCCCO) of 5.71 ns; a fluorescence lifetime (in CCCCCCCCO) of 5.9 ns; a fluorescence lifetime (in CCCCCCO) of 5.78 ns. In addition, the fluorescence lifetime is, setting by setting: (in CCCCO) 5.98 ns; (in CCCO) 6.01 ns; (in CCO) 6.09 ns; (in CCOC(C)=O) 5.78 ns; (in CCOCC) 6.21 ns; (in CN1CCCC1=O) 5.56 ns. The fluorescence lifetime is, setting by setting: (in CN(C)C=O) 5.57 ns; (in CO) 6.1 ns; (in Cc1ccccc1) 5.07 ns; (in OCC(F)(F)F) 6.94 ns; (in OCCO) 5.8 ns; (in OCCOc1ccccc1) 5.46 ns. The compound further yielded a fluorescence lifetime (in c1ccccc1) of 5 ns.
For `Cc1ccc(C2=[N+]3C(=Cc4c(C)cc(C)n4[B-]3(F)F)c3ccccc32)[nH]1`, the fluorescence lifetime (in C1CCOC1) was 6.54 ns; the fluorescence lifetime (in CC#N) turned out to be 6.32 ns; the fluorescence lifetime (in CCCCCC) worked out at 7.31 ns; the fluorescence lifetime (in CO) amounted to 6.5 ns; the fluorescence lifetime (in Cc1ccccc1) was determined as 6.17 ns; the fluorescence lifetime (in ClCCl) came out at 6.65 ns.
Take `CC1(C)C(/C=C/C2=C(c3ccc(C(=O)O)cc3)C(=C/C=C3/N(CCCCS(=O)(=O)[O-])c4ccc(S(=O)(=O)[O-])cc4C3(C)C)/CCC2)=[N+](CCCCS(=O)(=O)[O-])c2ccc(S(=O)(=O)[O-])cc21`: the fluorescence lifetime is 1.02 ns (in CC(C)=O); 1 ns (in CCO); 0.81 ns (in CO); 1.33 ns (in CS(C)=O); 0.44 ns (in O).
For `Cc1cc(=O)oc2c1cc(Br)c1occ(C)c12`, the fluorescence lifetime was 0.023 ns (in C1COCCO1), 0.044 ns (in CC#N), 0.08 ns (in CCO) and 0.13 ns (in OCC(F)(F)F).
`Cc1ccc(N(CC(=O)[O-])CC(=O)[O-])cc1OCCOc1cc(-c2cc3ccc(C(=O)[O-])cc3[nH]2)ccc1N(CC(=O)[O-])CC(=O)[O-]` registered a fluorescence lifetime (in O) of 1.4 ns.
For `CCCCCCCCC1(CCCCCCCC)c2cc(-c3ccc(C#N)cc3)ccc2-c2ccc(-c3ccc(C#N)cc3)cc21`, the fluorescence lifetime (in CN(C)C=O) came to 0.95 ns.
For the compound `Nc1cccc2c1C(=O)NC2=O`, the fluorescence lifetime by setting is: (in C1CCOC1) 15.2 ns; (in CCO) 16.3 ns; (in CN(C)C=O) 15.8 ns.
As to `COc1ccc(-c2nc3c(c4c2-c2ccc(C#N)cc2CC4)-c2ccc(C#N)cc2CC3)cc1`, where the note is “in CS(C)=O”, the fluorescence lifetime was determined as 0.27 ns.
Turning to `CCOC(=O)c1ccccc1-c1c2ccc(=[N+](CC)CC)cc-2oc2c1c(=O)oc1c3c4c(cc12)CCCN4CCC3`, the fluorescence lifetime came out at 0.43 ns (in CCO), 3.44 ns (in ClC(Cl)Cl) and 0.13 ns (in O).
For `Fc1nc(F)c(F)c(C#Cc2cc3c(cc2C#Cc2c(F)c(F)nc(F)c2F)OC2(CCCCC2)O3)c1F`, the fluorescence lifetime (in CC#N) is 5.3 ns.
Consider `CCC(CC)COC1=CC2=C3c4cc(OCC(CC)CC)c(-c5cccs5)n4[B-](F)(F)[n+]4nnn(c43)[B-](F)(F)[N+]2=C1c1cccs1`, for which the fluorescence lifetime reads like this: (in C1CCOC1) 0.5 ns; (in ClCCl) 0.5 ns.
For `CCNc1ccc2c(C(F)(F)F)cc(=O)oc2c1`, the fluorescence lifetime was found to be 3.67 ns (in C1CCC2CCCCC2C1); 3.56 ns (in C1CCCCC1); 3.55 ns (in CC1CCCCC1); 5.23 ns (in CC#N); 5.08 ns (in CC(C)=O); 5.14 ns (in CC(C)O). Also, the fluorescence lifetime was 3.39 ns (in CCC(C)CC); 3.38 ns (in CCCC(C)C); 3.3 ns (in CCCCCC); 5.23 ns (in CCCCCCO); 5.24 ns (in CCCCO); 5.04 ns (in CCO). Besides, the fluorescence lifetime reads like this: (in CCOC(C)=O) 4.83 ns; (in CO) 4.84 ns.
On to `CCC1(CC)c2cc(-c3ccc4c(c3)C(CC)(CC)c3cc(C(C)(C)C)ccc3-4)ccc2-c2ccc(-c3ccc4c(c3)C(CC)(CC)c3cc(C(C)(C)C)ccc3-4)cc21`, for which the fluorescence lifetime by setting is: (in CCCCC) 0.72 ns; (in CCCCCC) 0.67 ns; (in CCCCCCC) 0.67 ns; (in CCCCCCCC) 0.7 ns; (in CCCCCCCCC) 0.7 ns; (in CCCCCCCCCC) 0.71 ns. Further, the fluorescence lifetime reads like this: (in CCCCCCCCCCCC) 0.74 ns; (in CCCCCCCCCCCCC) 0.76 ns; (in CCCCCCCCCCCCCCC) 0.75 ns; (in CCCCCCCCCCCCCCCC) 0.75 ns; (in CCCCCCCCCCO) 0.8 ns; (in CCCCCCCCCO) 0.74 ns. This compound also displayed a fluorescence lifetime (in CCCCCCCCO) of 0.75 ns; a fluorescence lifetime (in CCCCCCCO) of 0.75 ns; a fluorescence lifetime (in CCCCCCO) of 0.76 ns; a fluorescence lifetime (in CCCCCO) of 0.76 ns; a fluorescence lifetime (in CCCCO) of 0.78 ns; a fluorescence lifetime (in CCCO) of 0.8 ns. The fluorescence lifetime reads like this: (in CCO) 0.8 ns; (in CO) 0.78 ns.
As to `N#Cc1ccc(-c2cc(-c3ccc(N4CCCC4)cc3)nc(-c3ccccc3)n2)cc1`, under “in ClC(Cl)Cl”, the fluorescence lifetime stood at 3.3 ns.
